Assay results reported in patent publication US20200239547A1, “ANTICANCER PEPTIDES” (IDP DISCOVERY PHARMA, S.L., priority 2017, published 2020).
Starred links: 1 amine or outer side, 2 acyl side, 3 side chain; linkers in the order of their positions; H or OH if unused. Positions of bridges follow the written chain, without caps; N, C: chain ends. Non-standard residues stand in square brackets, D forms with d. Residues, ends and D or L forms follow the SMILES beside them. No end group written: not given here. ξ: configuration not given here. ξαMeNle(6-ylidene) = CC(CCCC=[*:3])(N[*:1])C(=O)[*:2]; X1 = CC(CCCCCCC=[*:3])(N[*:1])C(=O)[*:2]; R8 = C=CCCCCCC[C@@](C)(N)C(=O)O; S5 = C=CCCC[C@](C)(N)C(=O)O

Key:
SCLC cell lines = assay: Viability assay, summary over SCLC cell lines; assay type: cell-based; conditions: summary in words of Table 3
Protocol: MCF-7 and NCl-H187 cells were seeded at a density of 5000 cells/well; NCl-H82 were seeded at a density of 2500 cells/well; HL-60, RPMI, U266 and NCl-H510A at 10000 cells/well in 100 μl of medium in 96 well plates. After 24 h, the compounds to be tested were added to calculate the dose/response curve at the starting concentration of 100 μM with serial dilutions (1:1). Controls are the untreated cells. Each experiment was performed in triplicate.
(§1) Cells were incubated during 48-72 h in incubator under CO2 atmosphere at 37° C. Cell viability was measured by means of MTT (3-(4,5-dimethylthiazol-2-yl)-2,5-diphenyltetrazolium bromide) assay, Alamar Blue® (Biosource DAL1100) and Hexosaminidase activity test, consecutively, following manufacturer instructions.
Data analysis was performed calculating the percentage of cell viability normalized vs. the values of negative control, which was considered equal to 100%. The dose/response curve was fitted through the sigmoidal equation dose-response (variable slope) and the […] values were calculated as follow: […]

[1] = biological target: MCF-7, epithelial (breast cancer)
Protocol: MCF-7, epithelial (breast cancer), ECACC: 86012803
(§6) Cell line MCF-7 was cultured in incubator under CO2 (6%) at 37° C. in DMEM high glucose (Dulbecco's Modified Eagle Solution, Gibco-BRL 31966-21) medium with 10% fetal bovine serum inactivated (FBS) (Gibco-BRL 10106-169). Cell lines HL-60, RPMI and U266 were cultured in incubator at 37° C. in RPMI-1640 (Sigma R8758) medium with 10% of fetal bovine serum inactivated (FBS) and 2 mM glutamine (Sigma G7513).
(§7) During the amplification step and the assays adherent cells were rinsed with DPBS (Dulbecco's Phosphate Buffered Saline, Sigma D1283) three times and afterward treated for 5 minutes with trypsin ([0.5 g/ml]/EDTA [0.2 g/ml]) (Gibco-BRL, 15400054) in solution of DPBS at 37° C., and, once detached, transferred in the culturing medium. No-adherent cells were centrifuged and transferred in the culturing medium. Cells were counted in a Neubauer chamber after labelling with Tripan-Blue.
(§8) MTT: 1. Stock solution of MTT (475989 Calbiochem) was 5 mg/ml in PBS 1×. As negative control (experiment noise) 3 wells were treated with 20 μl/well of a solution of SDS 10% in H2O. The same control was used for Alamar Blue/Hexosaminidase. 10 μl/well of MTT solution were added and the plate was incubated for 3-4 hr. The medium was discarded and 100 μl of extracting buffer (PBS 1×, 15% SDS, 50% Na N,N-Dimethylformamide, pH 4.7) were added to each well. Plates were incubated for 16h at room temperature under orbital shaking. Absorbance at 570 nm was finally measured.
(§9) Alamar Blue: 10 μl Alamar Blue solution was added to each well and the plates were incubated for 4 in the incubator. Fluorescence ratio at 535/590 (excitation/emission) was measured in Cytofluor (Millipore) fluorimeter. Blank control was determined by lysis of untreated cells with con 2% of Triton X100, right before adding Alamar Blue solution.
(§10) Hexosaminidase activity test: after Alamar Blue lecture, medium was discarded and plates were rinsed once with PBS. 60 μl hexosaminidase substrate (p-nitrophenol-N-acetyl-beta-D-glucosamide 7.5 mM [Sigma N-9376], sodium citrate 0.1 M, pH 5.0, 0.25% Triton X-100) was added to each well and the plates were incubated at 37° C. for 2-5 h, according to the cell type (hexosaminidase activity changes according to the cell type). […] Blank control was the same as described before.
(§11) Data analysis was performed calculating the percentage of cell viability normalized vs. the values of negative control, which was considered equal to 100%. The dose/response curve was fitted through the sigmoidal equation dose-response (variable slope) and the ECK values were calculated as follow:

[2] = system: HL-60, promyeloblast (acute myelocytic leukemia, AML)
Protocol: HL-60, promyeloblast (acute myelocytic leukemia, AML), ECACC: 98070106
as §6, §7, §8, §9, §10, §11

[3] = system: RPMI, lymphoblast (myeloma)
Protocol: RPMI, lymphoblast (myeloma), ATCC® CCL155™
Cell lines HL-60, RPMI and U266 were cultured in incubator at 37° C. in RPMI-1640 (Sigma R8758) medium with 10% of fetal bovine serum inactivated (FBS) and 2 mM glutamine (Sigma G7513).
as §7, §8, §9, §10, §11

[4] = system: U266, lymphoblast (myeloma)
Protocol: U266, lymphoblast (myeloma), ATCC® TIB196™
as §6, §7, §8, §9, §10, §11
Y=Bottom+(Top-Bottom)/(1+10̂{[(LogEC50-X)*HillSlope]},

[5] = system: NCl-H187, epithelial (small cell lung cancer, SCLC); assay: Viability assay in NCl-H187; assay type: cell-based; conditions: H187 cell line, 48-72 h incubation
Protocol: NCl-H187, epithelial (small cell lung cancer, SCLC), ATCC-CRL-5804
(§2) Cell lines NCl-H82, NCl-H187 were cultured in incubator at 37° C. in RPMI-1640 (Sigma R8758) medium with 10% of fetal bovine serum inactivated (FBS) and 2 mM glutamine (Sigma G7513). Cell line NCl-H510A was cultured in incubator in F12K medium with 10% of fetal bovine serum inactivated (FBS).
(§3) During the amplification step and the assays adherent cells were rinsed with DPBS (Dulbecco's Phosphate Buffered Saline, Sigma D1283) three times and afterward treated for 5 minutes with trypsin ([…]) (Gibco-BRL, 15400054) in solution of DPBS at 37° C., and, once detached, transferred in the culturing medium. […] Cells were counted in a Neubauer chamber after labelling with Tripan-Blue. […]
as §1
(§4) MTT: 1. […] Absorbance at 570 nm was finally measured.
(§5) Alamar Blue: 10 μl Alamar Blue solution was added to each well and the plates were incubated for […] in the incubator. Fluorescence ratio at 535/590 (excitation/emission) was measured in Cytofluor (Millipore) fluorimeter. […]

[6] = system: NCl-H82, epithelial (small cell lung cancer, SCLC); assay: Viability assay in NCl-H82; assay type: cell-based; conditions: H82 cell line, 48-72 h incubation
Protocol: NCl-H82, epithelial (small cell lung cancer, SCLC), ATCC-CRL-5811
as §2, §3, §1, §4, §5

[7] = system: NCl-H510A, epithelial (small cell lung cancer, SCLC); assay: Viability assay in NCl-H510A; assay type: cell-based; conditions: H510A cell line, 48-72 h incubation
Protocol: NCl-510A, epithelial (small cell lung cancer, SCLC), ATCC-HBT-124
as §2, §3, §1, §4, §5

Compound | anti-cancer activity in SCLC cell lines (SCLC cell lines) | EC50 [1] [µM] | EC50 [2] [µM] | EC50 [3] [µM] | EC50 [4] [µM] | activity in RPMI cell lines ([3]; summary in words of Table 2) | EC50 [5] [µM] | EC50 [6] [µM] | EC50 [7] [µM]
CC[C@H](C)[C@H](NC(=O)[C@H](CCCCN)NC(=O)[C@@H](NC(=O)[C@H](CCC(N)=O)NC(=O)[C@@H](N)CCCNC(=N)N)[C@@H](C)CC)C(=O)N[C@@H](Cc1c[nH]c2ccccc12)C(=O)N[C@@H](Cc1ccccc1)C(=O)N[C@@H](CCC(N)=O)C(=O)N[C@@H](CC(N)=O)C(=O)N[C@@H](CCCNC(=N)N)C(=O)N[C@@H](CCCNC(=N)N)C(=O)N[C@@H](CCSC)C(=O)N[C@@H](CCCCN)C(=O)N[C@@H](Cc1c[nH]c2ccccc12)C(=O)N[C@@H](CCCCN)C(=O)N[C@@H](CCCCN)C(=O)N[C@@H](CO)C(=O)N[C@@H](CCCCN)C(=O)N[C@@H](C)C(=O)N1CCC[C@H]1C(=O)N[C@@H](CCCCN)C(=O)N[C@H](C(=O)N[C@H](C(=O)N[C@H](C(=O)N[C@@H](CC(C)C)C(=O)N[C@@H](CO)C(=O)N[C@@H](CCCCN)C(=O)N[C@@H](C)C(=O)N[C@@H](CC(C)C)C(=O)N[C@@H](CCC(=O)O)C(=O)N[C@@H](Cc1ccc(O)cc1)C(=O)N[C@@H](CC(C)C)C(=O)N[C@@H](CCC(N)=O)C(=O)N[C@@H](C)C(N)=O)[C@@H](C)CC)C(C)C)C(C)C [IDP-LLCb02] | showed anti-cancer activity |  |  |  |  |  |  |  | 
CC(C)C[C@H](NC(=O)[C@H](C)NC(=O)[C@H](CC(C)C)NC(=O)C1(C)CCCC=CCCCCCCC(C)(NC(=O)[C@H](CCCNC(=N)N)NC(=O)[C@H](CCCCN)NC(=O)[C@@H](N)CCCNC(=N)N)C(=O)N[C@@H](CC(N)=O)C(=O)N[C@@H](CC(=O)O)C(=O)N[C@@H](CC(C)C)C(=O)N[C@@H](CCCNC(=N)N)C(=O)N[C@@H](CO)C(=O)N[C@@H](CCCNC(=N)N)C(=O)N1)C(=O)N[C@@H](CCCNC(=N)N)C(=O)N[C@@H](CC(=O)O)C(=O)N[C@@H](CCC(N)=O)C(N)=O (stereo partly shown) [IDP-LS05, RKRXNDLRSRXLALRDQ] (H-RKR[X1]NDLRSR[ξαMeNle(6-ylidene)]LALRDQ-NH2; staple 4-11; N-terminus and C-terminus assumed) |  | > 100 | ~5 | ~6 | > 100 |  |  |  | 
CC(C)C[C@@H]1NC(=O)[C@H](C)NC(=O)[C@H](CC(C)C)NC(=O)[C@H](Cc2ccccc2)NC(=O)[C@H](CCCNC(=N)N)NC(=O)[C@H](CO)NC(=O)[C@](C)(NC(=O)[C@H](CC(C)C)NC(=O)[C@H](CC(=O)O)NC(=O)[C@H](CC(N)=O)NC(=O)[C@H](CCCNC(=N)N)NC(=O)[C@H](CCCNC(=N)N)NC(=O)[C@H](CCCCN)NC(=O)[C@@H](N)CCCNC(=N)N)CCCCCCC=CCCC[C@@](C)(C(=O)N[C@@H](CC(=O)O)C(=O)N[C@@H](CCC(N)=O)C(N)=O)NC1=O [IDP-LS13, RKRRNDLXSRFLALXDQ] (H-RKRRNDL[R8]SRFLAL[S5]DQ-NH2; staple 8-15; N-terminus and C-terminus assumed) |  | ~10 | ~7 | ~9 | ~10 |  |  |  | 
CC(C)C[C@@H]1NC(=O)[C@H](C)NC(=O)[C@H](CC(C)C)NC(=O)[C@H](Cc2ccccc2)NC(=O)C(C)(NC(=O)[C@H](CO)NC(=O)[C@H](CCCNC(=N)N)NC(=O)[C@H](CC(C)C)NC(=O)[C@H](CC(=O)O)NC(=O)[C@H](CC(N)=O)NC(=O)[C@H](CCCNC(=N)N)NC(=O)[C@H](CCCNC(=N)N)NC(=O)[C@H](CCCCN)NC(=O)[C@@H](N)CCCNC(=N)N)CCCCCCC=CCCCC(C)(C(N)=O)NC(=O)[C@H](CC(=O)O)NC(=O)[C@H](CCCNC(=N)N)NC1=O (stereo partly shown) [IDP-LS15, RKRRNDLRSXFLALRDX] (H-RKRRNDLRS[X1]FLALRD[ξαMeNle(6-ylidene)]-NH2; staple 10-17 (inferred); N-terminus and C-terminus assumed) |  | > 100 | > 100 | ~7 | ~8 |  |  |  | 
CC(C)C[C@@H]1NC(=O)[C@H](C)NC(=O)[C@H](CCCCN)NC(=O)[C@H](CO)NC(=O)[C@H](CC(C)C)NC(=O)C(C)(NC(=O)[C@@H](NC(=O)[C@@H](NC(=O)[C@H](CCCCN)NC(=O)[C@@H]2CCCN2C(=O)[C@H](C)N)C(C)C)C(C)C)CCCCCCC=CCCCC(C)(C(=O)N[C@@H](CC(C)C)C(=O)N[C@@H](CCC(N)=O)C(=O)N[C@@H](C)C(N)=O)NC(=O)[C@H](CCC(=O)O)NC1=O (stereo partly shown) [IDP-LS16, APKVVXLSKALEXLQA] (H-APKVV[X1]LSKALE[ξαMeNle(6-ylidene)]LQA-NH2; staple 6-13; N-terminus and C-terminus assumed) |  | > 100 | > 100 | ~15 | ~10 |  |  |  | 
CC[C@H](C)[C@H](NC(=O)[C@@H](NC(=O)[C@@H](NC(=O)[C@H](CCCCN)NC(=O)[C@@H]1CCCN1C(=O)[C@H](C)N)C(C)C)C(C)C)C(=O)N[C@@H](CC(C)C)C(=O)NC1(C)CCCCCCC=CCCCC(C)(C(=O)N[C@@H](C)C(N)=O)NC(=O)[C@H](CC(C)C)NC(=O)[C@H](Cc2ccc(O)cc2)NC(=O)[C@H](CCC(=O)O)NC(=O)[C@H](CC(C)C)NC(=O)[C@H](C)NC(=O)[C@H](CCCCN)NC1=O (stereo partly shown) [IDP-LS17, APKVVILXKALEYLXA] (H-APKVVIL[X1]KALEYL[ξαMeNle(6-ylidene)]A-NH2; staple 8-15 (inferred); N-terminus and C-terminus assumed) |  | > 100 | > 100 | ~10 | ~16 |  |  |  | 
RKRRNDLRSRFLALRDQ-NH2 (C-terminus assumed) [IDP-wtL05, Arg-Lys-Arg-Arg-Asn-Asp-Leu-Arg-Ser-Arg-Phe-Leu-Ala-Leu-Arg-Asp-Gln] |  | > 100 | > 100 | ~10 | > 100 | shows activity |  |  | 
RRRRRRRRKRRNDLRSRFLALRDQ-NH2 [IDP-intwtL05] |  | > 100 | > 100 | > 100 | > 100 |  |  |  | 
RRRRRRRSKAPKVVILSKALEYLQA-NH2 [IDP-LLCb01] | showed anti-cancer activity |  |  |  |  |  | ~5 | ~2.5 | ~5
